Data from patent US20060069132A1, “Azolecarboxamide herbicides” (priority 2004, published 2006).

Tests used:
wheat = assay: Test B postemergence herbicide test; format: in vivo, Triticum aestivum; design: key to Wheat plant response rating: 0 = no effect, 100 = complete control; conditions: postemergence
Method in brief: (§1)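 Formulated test chemicals went onto postemergence plants measuring 2 to 18 cm, at one to four leaves. For the paddy assay, species had reached two leaves. Scoring took place 13–15 days later by eye, relative to untreated plants, using 0 for no effect up to 100 for full control.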

giant foxtail [1] = assay: Test A pre-/postemergence herbicide test; format: in vivo, Setaria faberi
Method in brief: (§2)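 Plants are held in greenhouse about ten days after treatment, then compared with untreated controls and scored 0 (no effect) to 100 (complete control). Preemergence dosing is a directed soil spray on sown sandy loam; postemergence dosing is spray to runoff at 2–10 cm height.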

morningglory [2] = assay: Test A pre-/postemergence herbicide test; format: in vivo, Ipomoea spp.
Method in brief: as §2

barnyardgrass [3] = assay: Test B flooded paddy test; format: in vivo, Echinochloa crus-galli; conditions: 1000 g ai/ha, scale 0 to 100 (0 no effect, 100 complete control)
Method in brief: (§3)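 Plants grow to 1- to 4-leaf stage (2–18 cm) for postemergence spraying, or to 2-leaf stage for the paddy test. Formulated compound is applied. Greenhouse holding lasts 13–15 days. Response is scored visually relative to controls, 0 no effect to 100 complete control; a dash means no result.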

ducksalad = assay: Test B flooded paddy test; format: in vivo, Heteranthera limosa; conditions: 1000 g ai/ha, scale 0 to 100 (0 no effect, 100 complete control)
Method in brief: as §3

blackgrass = assay: Test B postemergence herbicide test; format: in vivo, Alopecurus myosuroides; conditions: postemergence
Method in brief: as §3

lambsquarters = assay: Test B pre-/postemergence herbicide test; format: in vivo, Chenopodium album; conditions: for Lambsquarters plant response rating: postemergence
Method in brief: (§4)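 Visual rating, 0 (no effect) to 100 (complete control), versus untreated controls after 13–15 d in greenhouse. Pre- and postemergence applications (postemergence plants 2–18 cm, 1–4 leaves); flooded paddy arm at 2-leaf stage. Compounds in non-phytotoxic solvent plus surfactant.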

large crabgrass [4] = assay: Test A pre-/postemergence herbicide test; format: in vivo, Digitaria sanguinalis
Method in brief: as §2

velvetleaf [5] = assay: Test B pre-/postemergence herbicide test; format: in vivo, Abutilon theophrasti; conditions: for Velvetleaf plant response rating: postemergence
Method in brief: as §4

[6] = tested on: small flower umbrella sedge; assay: Test B flooded paddy test; format: in vivo, Cyperus difformis; conditions: 1000 g ai/ha, scale 0 to 100 (0 no effect, 100 complete control)
Method in brief: as §3

wild oat = assay: Test B postemergence herbicide test; format: in vivo, Avena fatua; conditions: postemergence
Method in brief: as §1

giant foxtail [7] = assay: Test B pre-/postemergence herbicide test; format: in vivo, Setaria faberi; conditions: for Foxtail, Giant plant response rating: postemergence
Method in brief: as §4

pigweed = assay: Test B pre-/postemergence herbicide test; format: in vivo, Amaranthus retroflexus; conditions: for Pigweed plant response rating: postemergence
Method in brief: as §4

morningglory [8] = assay: Test B pre-/postemergence herbicide test; format: in vivo, Ipomoea coccinea; conditions: for Morningglory plant response rating: postemergence
Method in brief: (§5)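 Species tested were Echinochloa crus-galli, Ipomoea coccinea, Xanthium strumarium and Oryza sativa, treated both before emergence and at the 1- to 4-leaf stage; rice and barnyardgrass were also tested under flooding at 2 leaves. Greenhouse incubation lasted 13–15 days before visual 0–100 scoring.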

velvetleaf [9] = assay: Test A pre-/postemergence herbicide test; format: in vivo, Abutilon theophrasti
Method in brief: as §2

large crabgrass [10] = assay: Test B pre-/postemergence herbicide test; format: in vivo, Digitaria sanguinalis; conditions: for Crabgrass, Large plant response rating: postemergence
Method in brief: as §4

Surinam grass = assay: Test B pre-/postemergence herbicide test; format: in vivo, Urochloa decumbens; conditions: for Surinam Grass plant response rating: postemergence
Method in brief: as §4

rice = assay: Test B flooded paddy test; format: in vivo, Oryza sativa; conditions: 1000 g ai/ha, scale 0 to 100 (0 no effect, 100 complete control)
Method in brief: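 Read-out: visual comparison with controls, scored 0 to 100, where 100 means complete control and 0 no effect. Formulated chemicals were applied postemergence to plants 2–18 cm tall (1- to 4-leaf), or to flooded-paddy plants at the 2-leaf stage, then held 13 to 15 days under glass.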

cocklebur = assay: Test B pre-/postemergence herbicide test; format: in vivo, Xanthium strumarium; conditions: for Cocklebur plant response rating: postemergence
Method in brief: as §5

redroot pigweed = assay: Test A pre-/postemergence herbicide test; format: in vivo, Amaranthus retroflexus
Method in brief: as §2

corn = assay: Test B pre-/postemergence herbicide test; format: in vivo, Zea mays; conditions: for Corn plant response rating: postemergence
Method in brief: as §4

barnyardgrass [11] = assay: Test B pre-/postemergence herbicide test; format: in vivo, Echinochloa crus-galli; conditions: for Barnyardgrass plant response rating: postemergence
Method in brief: as §5

barnyardgrass [12] = assay: Test A pre-/postemergence herbicide test; format: in vivo, Echinochloa crus-galli
Method in brief: as §2

[13] = 125 g ai/ha, visual rating, scale 0 (no effect) to 100 (complete control)
[14] = 500 g ai/ha, scale 0 to 100, 0 is no effect, 100 is complete control
[15] = Postemergence, 500 g ai/ha, 0 to 100 scale, 0 no effect, 100 complete control
[16] = Postemergence, 2000 g ai/ha, 0 to 100 scale, 0 no effect, 100 complete control
[17] = Preemergence, 2000 g ai/ha, visual rating, 0 to 100 scale (0 no effect, 100 complete control)
[18] = preemergence, 500 g ai/ha, visual injury, 0 to 100 scale (0 no effect, 100 complete control)
[19] = 125 g ai/ha, 0 = no effect, 100 = complete control, preemergence
[20] = 500 g ai/ha, visual rating, 0 = no effect, 100 = complete control, preemergence

`COC(=O)c1cccc(NC(=O)c2cc(C(C)(C)C)nn2C)n1` [Compound 312] was tested, and the “Wheat plant response rating” value (wheat; [13]) was 0, the “Wheat plant response rating” value (wheat; [14]) was 0 and the “Foxtail, Giant plant response rating” value (giant foxtail [1]; [15]) was 0. For the same molecule, the “Plant response rating, Foxtail, Giant” value (giant foxtail [1]; [16]) was 0, the “Foxtail, Giant plant response rating” value (giant foxtail [1]; [17]) was 0 and the “Foxtail, Giant plant response rating” value (giant foxtail [1]; [18]) was 0. The “Morningglory plant response rating” value (morningglory [2]; [15]) was 0, the “Plant response rating, Morningglory” value (morningglory [2]; [16]) was 0 and the “Morningglory plant response rating” value (morningglory [2]; [17]) was 0. The “Morningglory plant response rating” value (morningglory [2]; [18]) was 0, the “Barnyardgrass plant response rating” value (barnyardgrass [3]) was 0 and the “Ducksalad plant response rating” value (ducksalad) was 0. The “Blackgrass plant response rating” value (blackgrass; [13]) was 0, the “Blackgrass plant response rating” value (blackgrass; [14]) was 0 and the “Lambsquarters plant response rating (0 to 100 scale)” value (lambsquarters; [19]) was 0. The “Lambsquarters plant response rating” value (lambsquarters; [13]) was 10, the “Plant response rating, Lambsquarters” value (lambsquarters; [20]) was 0 and the “Lambsquarters plant response rating” value (lambsquarters; [14]) was 20. The “Crabgrass, Large plant response rating” value (large crabgrass [4]; [15]) was 0, the “Plant response rating, Crabgrass, Large” value (large crabgrass [4]; [16]) was 0 and the “Crabgrass, Large plant response rating” value (large crabgrass [4]; [17]) was 0. For the same molecule, the “Crabgrass, Large plant response rating” value (large crabgrass [4]; [18]) was 0, the “Velvetleaf plant response rating” value (velvetleaf [5]; [13]) was 0 and the “Plant response rating, Velvetleaf” value (velvetleaf [5]; [20]) was 0. The “Velvetleaf plant response rating” value (velvetleaf [5]; [14]) was 0, the “Sedge, Umbrella plant response rating” value [6] was 0 and the “Oat, Wild plant response rating” value (wild oat; [13]) was 0. For the same molecule, the “Oat, Wild plant response rating” value (wild oat; [14]) was 0, the “Foxtail, Giant plant response rating (0 to 100 scale)” value (giant foxtail [7]; [19]) was 0 and the “Foxtail, Giant plant response rating” value (giant foxtail [7]; [13]) was 0. For the same molecule, the “Plant response rating, Foxtail, Giant” value (giant foxtail [7]; [20]) was 0, the “Foxtail, Giant plant response rating” value (giant foxtail [7]; [14]) was 0 and the “Pigweed plant response rating (0 to 100 scale)” value (pigweed; [19]) was 0. The “Pigweed plant response rating” value (pigweed; [13]) was 0, the “Plant response rating, Pigweed” value (pigweed; [20]) was 0 and the “Pigweed plant response rating” value (pigweed; [14]) was 20. For the same molecule, the “Morningglory plant response rating (0 to 100 scale)” value (morningglory [8]; [19]) was 0, the “Morningglory plant response rating” value (morningglory [8]; [13]) was 0 and the “Plant response rating, Morningglory” value (morningglory [8]; [20]) was 0. The “Morningglory plant response rating” value (morningglory [8]; [14]) was 20, the “Velvetleaf plant response rating” value (velvetleaf [9]; [15]) was 0 and the “Plant response rating, Velvetleaf” value (velvetleaf [9]; [16]) was 0. The “Velvetleaf plant response rating” value (velvetleaf [9]; [17]) was 0, the “Velvetleaf plant response rating” value (velvetleaf [9]; [18]) was 0 and the “Crabgrass, Large plant response rating (0 to 100 scale)” value (large crabgrass [10]; [19]) was 0. For the same molecule, the “Crabgrass, Large plant response rating” value (large crabgrass [10]; [13]) was 0, the “Plant response rating, Crabgrass, Large” value (large crabgrass [10]; [20]) was 0 and the “Crabgrass, Large plant response rating” value (large crabgrass [10]; [14]) was 0. The “Surinam Grass plant response rating (0 to 100 scale)” value (Surinam grass; [19]) was 0, the “Surinam Grass plant response rating” value (Surinam grass; [13]) was 0 and the “Plant response rating, Surinam Grass” value (Surinam grass; [20]) was 0. For the same molecule, the “Surinam Grass plant response rating” value (Surinam grass; [14]) was 0, the “Rice plant response rating” value (rice) was 0 and the “Cocklebur plant response rating (0 to 100 scale)” value (cocklebur; [19]) was 0. For the same molecule, the “Cocklebur plant response rating” value (cocklebur; [13]) was 0, the “Plant response rating, Cocklebur” value (cocklebur; [20]) was 0 and the “Cocklebur plant response rating” value (cocklebur; [14]) was 0. For the same molecule, the “Pigweed plant response rating” value (redroot pigweed; [15]) was 0, the “Plant response rating, Pigweed” value (redroot pigweed; [16]) was 0 and the “Pigweed plant response rating” value (redroot pigweed; [17]) was 0. For the same molecule, the “Pigweed plant response rating” value (redroot pigweed; [18]) was 0, the “Corn plant response rating (0 to 100 scale)” value (corn; [19]) was 0 and the “Corn plant response rating” value (corn; [13]) was 0. The “Plant response rating, Corn” value (corn; [20]) was 0, the “Corn plant response rating” value (corn; [14]) was 0 and the “Barnyardgrass plant response rating (0 to 100 scale)” value (barnyardgrass [11]; [19]) was 0. For the same molecule, the “Barnyardgrass plant response rating” value (barnyardgrass [11]; [13]) was 0, the “Plant response rating, Barnyardgrass” value (barnyardgrass [11]; [20]) was 0 and the “Barnyardgrass plant response rating” value (barnyardgrass [11]; [14]) was 0. The “Barnyardgrass plant response rating” value (barnyardgrass [12]; [15]) was 0, the “Plant response rating, Barnyardgrass” value (barnyardgrass [12]; [16]) was 0 and the “Barnyardgrass plant response rating” value (barnyardgrass [12]; [17]) was 0. For the same molecule, the “Barnyardgrass plant response rating” value (barnyardgrass [12]; [18]) was 0.
